Measured values published in EP2144590B1, “SKIN TREATMENT COMPOSITIONS AND METHODS” (Sytheon Ltd., priority 2007, dated 2008).
Where two headings read alike, the source gives them in different places.

Experiments:
[1] = tested on: Clostridium collagenase IV; assay: Collagenase inhibitory activity (Enzcheck kit, quenched fluorescent gelatin); type: biochemical
Experimental: In order to ascertain whether other benefits may be attained by the use of meroterpenes in skin care formulations, a study was conducted on the impact, if any, the presence of bakuchiol may have on collagenase: a collagenolytic enzyme responsible for much of the collagen damage associated with UV exposure and photoaging in general. Collagenase activity was measured with an Enzcheck kit from Molecular Probes (Carlsbad, CA, USA) using quenched fluorescent gelatin and Clostridium collagenase IV, a generic metalloproteinase. Test material (aqueous solutions 1000ug/ml, 100ug/ml, 10ug/ml and 1ug/ml made from 10mg/ml stock in DMSO) was incubated in the presence of collagenase substrate - quenched fluorescin-linked gelatin and in the presence of the proteolytic enzyme. Phenanthroline, a potent metalloprotease (MP) inhibitor was used as positive control at 100ug/ml. The kinetics of the release of the digested, fluorescent gelatin were measured at excitation/emission wavelengths of 485/530nm with Millipore Cytofluor 2350 microfluorometer.

[2] = target: T1, human neutrophil elastase (Homo sapiens, UniProt P08246); assay: Elastase inhibitory activity (colorimetric substrate Suc-Ala-Ala-Ala-pNA, 410 nm); type: biochemical; conditions: for remaining activity at 1 µg/mL: 1 ug/ml; for remaining activity at 1 µg/mL / remaining activity at 5 µg/mL / remaining activity at 25 µg/mL: average of three runs, water = 100, read-out: Elastase Activity (% of Control); for remaining activity at 5 µg/mL: 5 ug/ml; for remaining activity at 25 µg/mL: 25 ug/ml; for elastase inhibitory effect: at the concentrations tested
T1 construct: purchased Calbiochem of San Diego, CA, US 324681
T1 sequence (P08246 30-247 limits assumed): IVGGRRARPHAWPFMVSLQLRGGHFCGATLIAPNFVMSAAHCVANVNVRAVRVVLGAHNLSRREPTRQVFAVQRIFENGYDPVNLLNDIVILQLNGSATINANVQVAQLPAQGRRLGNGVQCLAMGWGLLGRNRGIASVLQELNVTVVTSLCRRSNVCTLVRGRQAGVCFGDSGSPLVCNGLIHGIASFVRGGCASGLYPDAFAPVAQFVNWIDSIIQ

[3] = Skin sensitivity: repeated occlusive patch test, nine inductive patchings and a challenge; type: in vivo; conditions: 5% dilution in corn oil, 111 subjects
Experimental: Reactions were scored 24 and 48 hours after application.

Propionibacterium acne [4] = assay: Median inhibitory concentration (IC50) in BHI broth, reading at 610 nm; type: cell-based
Experimental: (§1) Two series of tests were conducted to evaluate the bioefficacy of bakuchiol, salicylic acid and the combination of the two against Propionibacterium acne. The first evaluated the median inhibitory concentration (IC50) of each of the two actives in order to set the dosing for the second test. The second test ascertained the bioefficacy, as represented by the zone of inhibition, of each active and their combination in relation to P. acne. In both sets of tests, inoculums of 1.0 x 10^6 cfu/ml P. acne were used.
P. acne organisms were inoculated into Brain Heart Infusion (BHI) broth and incubated at 37°C for 24 hrs. Thereafter, the culture was serially diluted to a 10^-6 dilution. 100 µl aliquots of the 10^-6 dilution culture were then added to sterile test tubes containing 10 ml fresh BHI broth serial solutions of bakuchiol or salicylic acid. The serial solutions contained either active at from 0.5 to 50 µg/ml concentrations in 0.5 µg/ml increments, i.e., 0.5, 1.0, 1.5,..., 50.0 µg/ml. An inoculated control, free of either active, was also evaluated. The inoculated test tubes were then incubated at 37°C for 48 hrs. UV spectrophotometric readings were then made of each test tube at 610 nm and the values plotted.

Propionibacterium acne [5] = assay: Zone of inhibition (agar well diffusion technique); type: cell-based
Experimental: as §1
Agar plates were prepared by first pouring sterile molten agar into petriplates to a depth of 6mm. After allowing the agar to solidify sufficiently, a well of 10 mm diameter was prepared by carefully punching and removing a 10 mm diameter plug of agar without lifting the surrounding medium. In this experiment, all cultures used were adjusted to the turbidity of 0.5 McFarland per the standard procedure and then 0.1 ml of each culture was spread plated onto the agar plates. Appropriate controls were maintained.
Stock solutions of the actives to be tested were prepared by dissolving 1 mg of each of the actives, Sytenol A bakuchiol and salicylic acid, in separate 5 ml quantities of dimethyl sulfoxide (DMSO) at room temperature: though slight warming was employed to expedite the dissolution of the salicylic acid. These stock solutions were then diluted or mixed and diluted to produce sample solutions having the concentrations of each active as noted in Table 4 and the well of each plate filled with the appropriate solution by capillary pipette. Nothing was placed in the well of the control.
Following inoculation and addition of the test sample to the well, each plate was then covered and incubated for 48 hours at 37 °C. Following incubation, the plates were removed and the zones of inhibition recorded and tabulated. […] When both actives were present at one-half the median inhibitory concentration, […] (Sample F); however, it seemed that the apparent ineffectiveness of the salicylic acid at this level appeared to offset or counteract the effectiveness of the bakuchiol. Consequently, at least for salicylic acid, at least one-half and preferably at least the median inhibitory concentration of the dermatological acid should be used.

With `C=C[C@@](C)(/C=C/c1ccc(O)cc1)CCC=C(C)C` [Bakuchiol] the “Collagenase median inhibitory concentration (IC50)” value [1] was ~0.1 % (w/w), the remaining activity at 1 µg/mL [2] was 31% and the remaining activity at 5 µg/mL [2] was 65%. The remaining activity at 25 µg/mL [2] was 77%, the elastase inhibitory effect [2] was “clear elastase inhibition at all concentrations tested” and the primary irritation [3] was “NON-PRIMARY IRRITANT”. The sensitization [3] was “NON-PRIMARY SENSITIZER”, the IC50 (Propionibacterium acne [4]; 48 hrs at 37°C, read-out: IC50) was 0.6 mg/L and the zone of inhibition at 0.3 µg/mL (Propionibacterium acne [5]; Propionibacterium, Sample A: Bakuchiol 0.3 µg/ml) was 35 mm. It also gave a zone of inhibition at 0.6 µg/mL (Propionibacterium acne [5]; Propionibacterium, Sample B: Bakuchiol 0.6 µg/ml) of 37 mm.
`CC1=C(/C=C/C(C)=C/C=C/C(C)=C/CO)C(C)(C)CCC1` [Retinol, reference compound] gave a remaining activity at 1 µg/mL [2] of 87%, a remaining activity at 5 µg/mL [2] of 138% and a remaining activity at 25 µg/mL [2] of 416%. The elastase inhibitory effect [2] was “no statistically significant elastase inhibitory effect”.
In the case of `O=C(O)c1ccccc1O` [Salicylic acid, 2-hydroxybenzoic acid], the IC50 (Propionibacterium acne [4]; 48 h) is reported as 29 mg/L, the zone of inhibition at 29 µg/mL (Propionibacterium acne [5]; Propionibacterium) is reported as 12 mm and the zone of inhibition at 58 µg/mL (Propionibacterium acne [5]; Propionibacterium) is reported as 12 mm. For the same molecule, the “Zone of Inhibition” value (Propionibacterium acne [5]; Sample C: Salicylic acid 14.5 µg/ml) was “No Inhibition”.
